Patent US12492193B2, “Pyrazole derivatives for the treatment of cystic fibrosis” (Fondazione Istituto Italiano Di Tecnologia, priority 2017, dated 2025)

biological target: T1, mutant CFTR (Homo sapiens, UniProt P13569, DEL508-508); experiment: Fluorescence (HS-YFP) assay for CFTR activity, corrector assay; format: cell-based; settings: CFBE41o- and FRT cells with stable expression of mutant CFTR, 24 h compound treatment
T1 construct: expressed in transfected cells
Procedure: Fluorescence Assay for CFTR Activity
Mutant CFTR activity was determined with the functional assay based on the halide-sensitive yellow fluorescent protein, HS-YFP (Galietta et al., FEBS Lett 499: 220-224, 2001). CFBE41o- and FRT cells with stable expression of mutant CFTR and HS-YFP were plated on clear-bottom 96-well black microplates (Code 3603, Corning Life Sciences) at a density of 50,000 cells/well and kept at 37° C. in 5% CO2 for 24 hours. For the corrector assay, cells were treated for further 24 hours with test compounds, vehicle (DMSO), or the positive control VX-809. After treatment, the culture medium was removed and cells in each well were stimulated for 30 min at 37° C. with 60 μL PBS (containing 137 mM NaCl, 2.7 mM KCl, 8.1 mM Na2HPO4, 1.5 mM KH2PO4, 1 mM CaCl2, and 0.5 mM MgCl2) plus forskolin (20 μM) and genistein (50 μM).
For determination of potentiator activity on G551D-CFTR or G1349D-CFTR, cells were directly stimulated with forskolin plus test compound without previous incubation at low temperature. At the time of assay, microplates carrying CFBE41o- or FRT cells were transferred to microplate readers (BMG Labtech) equipped with high-quality excitation (HQ500/20X: 500±10 nm) and emission (HQ535/30M: 535±15 nm) filters for YFP (Chroma Technology). The assay consisted of a continuous 14 s fluorescence reading with 2 s before and 12 s after injection of an iodide-containing solution (165 μL of a modified PBS containing I^− instead of Cl^−; final I^− concentration in the well: 100 mM). Data were normalized to the initial background-subtracted fluorescence. Enhanced CFTR activity, induced by correctors and/or potentiators, results in accelerated I^− influx that in turn causes faster HS-YFP quenching (Pedemonte et al., Mol Pharmacol 68:1736-1746, 2005; Pedemonte et al., J Clin Invest 115:2564-2571, […]). To determine fluorescence quenching rate associated with I^− influx, the […] 10 s of data for each well were fitted with an exponential function to extrapolate initial slope (dF/dt).
EC50 obtained are illustrated in table 1 wherein +: EC50>2 μM; ++: 1.0 μM<EC50<2 μM; +++: EC50<1 μM.

T1 sequence (P13569 with tags, fused parts or gaps DEL508-508): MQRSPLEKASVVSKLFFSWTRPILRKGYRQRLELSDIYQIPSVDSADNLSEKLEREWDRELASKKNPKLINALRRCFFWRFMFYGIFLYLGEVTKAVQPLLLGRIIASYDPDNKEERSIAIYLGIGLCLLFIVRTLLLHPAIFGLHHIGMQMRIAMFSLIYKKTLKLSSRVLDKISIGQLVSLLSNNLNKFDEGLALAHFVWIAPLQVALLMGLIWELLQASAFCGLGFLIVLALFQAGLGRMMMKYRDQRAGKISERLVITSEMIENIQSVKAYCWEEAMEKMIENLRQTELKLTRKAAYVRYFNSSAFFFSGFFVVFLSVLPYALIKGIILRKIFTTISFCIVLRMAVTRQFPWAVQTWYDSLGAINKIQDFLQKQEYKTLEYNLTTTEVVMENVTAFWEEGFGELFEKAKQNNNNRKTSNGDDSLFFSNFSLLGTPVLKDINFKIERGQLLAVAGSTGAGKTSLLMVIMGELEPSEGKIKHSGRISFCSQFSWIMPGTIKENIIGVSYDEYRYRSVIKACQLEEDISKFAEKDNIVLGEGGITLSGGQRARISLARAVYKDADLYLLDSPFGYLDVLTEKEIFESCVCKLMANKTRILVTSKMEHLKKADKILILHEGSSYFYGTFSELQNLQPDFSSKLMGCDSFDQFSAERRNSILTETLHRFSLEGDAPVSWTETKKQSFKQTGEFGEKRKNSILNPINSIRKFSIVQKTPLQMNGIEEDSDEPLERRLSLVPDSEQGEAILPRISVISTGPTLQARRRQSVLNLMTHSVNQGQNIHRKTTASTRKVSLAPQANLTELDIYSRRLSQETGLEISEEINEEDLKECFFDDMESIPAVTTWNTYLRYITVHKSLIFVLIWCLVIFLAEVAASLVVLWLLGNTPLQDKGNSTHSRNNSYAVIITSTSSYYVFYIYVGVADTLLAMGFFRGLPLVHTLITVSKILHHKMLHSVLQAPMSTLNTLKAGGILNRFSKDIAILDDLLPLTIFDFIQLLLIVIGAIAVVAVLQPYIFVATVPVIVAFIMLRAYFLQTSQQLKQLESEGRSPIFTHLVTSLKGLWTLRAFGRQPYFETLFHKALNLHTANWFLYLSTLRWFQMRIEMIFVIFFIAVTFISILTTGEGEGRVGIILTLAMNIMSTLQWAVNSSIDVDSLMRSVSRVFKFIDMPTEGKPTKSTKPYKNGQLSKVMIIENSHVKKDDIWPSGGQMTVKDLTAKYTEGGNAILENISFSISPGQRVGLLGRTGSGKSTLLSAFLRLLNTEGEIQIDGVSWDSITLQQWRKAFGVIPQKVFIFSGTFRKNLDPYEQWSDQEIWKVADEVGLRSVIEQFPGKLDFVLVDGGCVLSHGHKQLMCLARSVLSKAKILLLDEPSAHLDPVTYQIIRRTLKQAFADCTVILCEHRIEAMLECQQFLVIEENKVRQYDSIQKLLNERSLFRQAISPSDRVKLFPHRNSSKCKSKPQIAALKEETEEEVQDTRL

| SMILES | EC50 |
| --- | --- |
| Cc1nn(-c2cccc(C(=O)N(C)c3ccc4c(c3)CCCC4)c2)c(C)c1Cl [compound 044] | > 2000 nM |
| CN(C(=O)c1cccc(-n2nc(C(F)(F)F)cc2OCc2ccccc2)c1)c1ccc2c(c1)OCO2 [compound 132, N-(1,3-benzodioxol-5-yl)-3-[5-benzyloxy-3-(trifluoromethyl)pyrazol-1-yl]-N-methyl-benzamide] | < 1000 nM |
| Cc1c(Cl)c(C(F)(F)F)nn1-c1cccc(C(=O)Nc2cc3c(cc2C=O)OCO3)c1 [Int-160, 3-[4-chloro-5-methyl-3-(trifluoromethyl)pyrazol-1-yl]-N-(6-formyl-1,3-benzodioxol-5-yl)benzamide] | > 2000 nM |
| COc1nc2cc(N(C)C(=O)c3cccc(-n4nc(C)c(Cl)c4C)c3)ccc2o1 [compound 064, 3-(4-Chloro-3,5-dimethyl-pyrazol-1-yl)-N-(2-methoxy-1,3-benzoxazol-5-yl)-N-methyl-benzamide] | > 2000 nM |
| Cc1c(Cl)c(C(=O)O)nn1-c1cccc(C(=O)N(C)c2ccc3c(c2)OCO3)c1 [compound 069, 1-[3-[1,3-Benzodioxol-5-yl(methyl)carbamoyl]phenyl]-4-chloro-5-methyl-pyrazole-3-carboxylic acid] | > 2000 nM |
| CN(C(=O)c1cccc(-n2nc(C(F)(F)F)cc2OCC23CC(C(=O)O)(C2)C3)c1)c1ccc2c(c1)OC(F)(F)O2 [compound 255, 3-[[2-[3-[(2,2-Difluoro-1,3-benzodioxol-5-yl)-methyl-carbamoyl]phenyl]-5-(trifluoromethyl)pyrazol-3-yl]oxymethyl]bicyclo[1.1.1]pentane-1-carboxylic acid] | < 1000 nM |
| Cc1ccc(-n2nc(C)c(Cl)c2C)cc1C(=O)N(C)c1ccc2c(c1)OCCO2 [compound 031, 5-(4-chloro-3,5-dimethyl-pyrazol-1-yl)-N-(2,3-dihydro-1,4-benzodioxin-6-yl)-N, 2-dimethyl-benzamide] | > 2000 nM |
| COc1ccccc1-c1cc(C(F)(F)F)nn1-c1cccc(C(=O)N(C)c2ccc3c(c2)OCO3)c1 [compound 184, N-(1,3-Benzodioxol-5-yl)-3-[5-(2-methoxyphenyl)-3-(trifluoromethyl)pyrazol-1-yl]-N-methyl-benzamide] | < 1000 nM |
| CN(C(=O)c1cccc(-n2nc(C(F)(F)F)cc2-c2cccs2)c1)c1ccc2c(c1)OCO2 [compound 166, N-(1,3-Benzodioxol-5-yl)-N-methyl-3-[5-(2-thienyl)-3-(trifluoromethyl)pyrazol-1-yl]benzamide] | < 1000 nM |
| CCOC(=O)c1c(Cl)c(C(C)C)nn1-c1cccc(C(=O)N(C)c2ccc3c(c2)OCO3)c1 [compound 087, Ethyl 2-[3-[1,3-benzodioxol-5-yl(methyl)carbamoyl]phenyl]-4-chloro-5-isopropyl-pyrazole-3-carboxylate] | < 1000 nM |
| CCOC(=O)c1c(C)nn(-c2cccc(C(=O)N(C)c3ccc4c(c3)OCO4)c2)c1C [compound 043, Ethyl 1-[3-[1,3-benzodioxol-5-yl(methyl)carbamoyl]phenyl]-3,5-dimethyl-pyrazole-4-carboxylate] | > 2000 nM |
| Cc1nn(-c2cccc(C(=O)N(C)c3ccc4c(c3)OCO4)c2)c(C)c1C(=O)NCCO [compound 059, 1-[3-[1,3-Benzodioxol-5-yl(methyl)carbamoyl]phenyl]-N-(2-hydroxyethyl)-3,5-dimethyl-pyrazole-4-carboxamide] | > 2000 nM |
| CC(C)(C)OC(=O)c1ccc(OCc2c(Cl)c(C(F)(F)F)nn2-c2cccc(C(=O)Nc3ccc4c(c3)OC(F)(F)O4)c2)cc1 [Int-172, Tert-butyl 4-[[4-chloro-2-[3-[(2,2-difluoro-1,3-benzodioxol-5-yl)carbamoyl]phenyl]-5-(trifluoromethyl)pyrazol-3-yl]methoxy]benzoate] | > 2000 nM |
| Cc1c(Cl)c(C(F)(F)F)nn1-c1cccc(C(=O)Nc2cc3c(cc2Cl)OCO3)c1 [compound 127, N-(6-Chloro-1,3-benzodioxol-5-yl)-3-[4-chloro-5-methyl-3-(trifluoromethyl)pyrazol-1-yl]benzamide] | > 2000 nM |
| Cc1nn(-c2cccc(C(=O)N(C)c3ccc4c(c3)OCO4)c2)c(C=O)c1Cl [compound 112, N-(1,3-benzodioxol-5-yl)-3-(4-chloro-5-formyl-3-methyl-pyrazol-1-yl)-N-methyl-benzamide] | < 1000 nM |

The next lines start with the values.

| EC50 | SMILES |
| --- | --- |
| < 1000 nM | CN(C(=O)c1cccc(-n2nc(C(F)(F)F)cc2-c2ccccc2C(F)(F)F)c1)c1ccc2c(c1)OCO2 [compound 176, N-(1,3-Benzodioxol-5-yl)-N-methyl-3-[3-(trifluoromethyl)-5-[2-(trifluoromethyl)phenyl]pyrazol-1-yl]benzamide] |
| < 1000 nM | Cc1nn(-c2cccc(C(=O)N(C)c3ccc4c(c3)CCO4)c2)c(C)c1Cl [compound 058] |
| > 2000 nM | Cc1nn(-c2cccc(C(=O)N(C)c3cccc4c3OC(F)(F)O4)c2)c(C)c1Cl [compound 026, 3-(4-Chloro-3,5-dimethyl-pyrazol-1-yl)-N-(2,2-difluoro-1,3-benzodioxol-4-yl)-N-methyl-benzamide] |
| > 2000 nM | O=C(Nc1ccc2c(c1)OCO2)c1cccc(-n2nc(C(F)(F)F)c(Cl)c2C2CC2)c1 [compound 165, N-(1,3-Benzodioxol-5-yl)-3-[4-chloro-5-cyclopropyl-3-(trifluoromethyl)pyrazol-1-yl]benzamide] |
| < 1000 nM | CN(C(=O)c1cccc(-n2nc(C(F)(F)F)c(Cl)c2OC2CCN(C(=O)OC(C)(C)C)CC2)c1)c1ccc2c(c1)OCO2 [compound 157, Tert-butyl 4-[2-[3-[1,3-benzodioxol-5-yl(methyl)carbamoyl]phenyl]-4-chloro-5-(trifluoromethyl)pyrazol-3-yl]oxypiperidine-1-carboxylate] |
| 1000 to 2000 nM | Cc1nc2ncc(N(C)C(=O)c3cccc(-n4nc(C(F)(F)F)c(Cl)c4C)c3)cc2o1 [compound 261, 3-[4-Chloro-5-methyl-3-(trifluoromethyl)pyrazol-1-yl]-N-methyl-N-(2-methyloxazolo[4,5-b]pyridin-6-yl)benzamide] |
| > 2000 nM | Cc1c(Cl)c(C(F)(F)F)nn1-c1cccc(C(=O)Nc2ccc3c(c2C=O)OCO3)c1 [Int-203, 3-[4-chloro-5-methyl-3-(trifluoromethyl)pyrazol-1-yl]-N-(4-formyl-1,3-benzodioxol-5-yl)benzamide] |
| > 2000 nM | Cc1c(Cl)c(C(F)(F)F)nn1-c1cccc(C(=O)Nc2cc3c(cc2C(=O)O)OCO3)c1 [Int-178, 6-[[3-[4-chloro-5-methyl-3-(trifluoromethyl)pyrazol-1-yl]benzoyl]amino]-1,3-benzodioxole-5-carboxylic acid] |
| > 2000 nM | Cc1nn(-c2cccc(C(=O)Nc3ccc4c(c3)CCO4)c2)c(C)c1Cl [Int-052] |
| > 2000 nM | Cc1nn(-c2cccc(C(=O)N(c3ccc4c(c3)OCCO4)C(C)C)c2)c(C)c1Cl [compound 003, 3-(4-Chloro-3,5-dimethyl-pyrazol-1-yl)-N-(2,3-dihydro-1,4-benzodioxin-6-yl)-N-isopropyl-benzamide] |
| > 2000 nM | Cc1nn(-c2cccc(C(=O)N(C)c3ccc4c(c3)OCO4)c2)c(C)c1C(N)=O [compound 056, 1-[3-[1,3-Benzodioxol-5-yl(methyl)carbamoyl]phenyl]-3,5-dimethyl-pyrazole-4-carboxamide] |
| < 1000 nM | Cc1nc2ccc(NC(=O)c3cccc(-n4nc(C(F)(F)F)c(Cl)c4C)c3)cc2s1 [Int-148, 3-[4-Chloro-5-methyl-3-(trifluoromethyl)pyrazol-1-yl]-N-(2-methyl-1,3-benzothiazol-6-yl)benzamide] |
| < 1000 nM | Cc1nc2cc(F)c(N(C)C(=O)c3cccc(-n4nc(C(F)(F)F)cc4OCc4ccc(C(=O)O)cc4)c3)cc2o1 [compound 196, 4-[[2-[3-[(5-Fluoro-2-methyl-1,3-benzoxazol-6-yl)-methyl-carbamoyl]phenyl]-5-(trifluoromethyl)pyrazol-3-yl]oxymethyl]benzoic acid] |
| < 1000 nM | CN(C(=O)c1cccc(-n2nc(C(F)F)c(C#N)c2COc2ccc(C(=O)O)cc2)c1)c1ccc2c(c1)OC(F)(F)O2 [compound 268, 4-[[4-cyano-2-[3-[(2,2-difluoro-1,3-benzodioxol-5-yl)-methyl-carbamoyl]phenyl]-5-(difluoromethyl)pyrazol-3-yl]methoxy]benzoic acid] |
| 1000 to 2000 nM | Cc1cc(C(F)(F)F)nn1-c1cccc(S(=O)(=O)N(C)c2ccc3c(c2)OCO3)c1 [compound 204, N-(1,3-Benzodioxol-5-yl)-N-methyl-3-[5-methyl-3-(trifluoromethyl)pyrazol-1-yl]benzenesulfonamide] |
